Assay results published in patent US20230270678A1, “PHARMACEUTICAL COMPOSITIONS FOR IMPROVED DELIVERY OF THERAPEUTIC LIPOPHILIC ACTIVES” (KARNAK TECHNOLOGIES, LLC, priority 2020, published 2023).

Test system: Pseudomonas aeruginosa
Test: MIC (minimum inhibition concentration) against P. aeruginosa
Type: cell-based
Procedure: Compositions with clarithromycin were prepared by cold physical process. Powder clarithromycin compositions were dissolved in water to obtaining nanoemulsion. The control free clarithromycin was dissolved in 1% DMSO. Emulsion dried using lyophilization. Samples were tested in three independent experiments, with triplicate in each experiment. Particle size was measured using DLS. MIC data (minimum inhibition concentrations) of the formulated and free antibiotic were compared.

CC[C@H]1OC(=O)[C@H](C)[C@@H](O[C@H]2C[C@@](C)(OC)[C@@H](O)[C@H](C)O2)[C@H](C)[C@@H](O[C@@H]2O[C@H](C)C[C@H](N(C)C)[C@H]2O)[C@](C)(OC)C[C@@H](C)C(=O)[C@H](C)[C@@H](O)[C@]1(C)O [Free clarithromycin, clarithromycin]
MIC: 0.0625%
